This test is described as follows: DPPH free-radical scavenging assay. It counts as biochemical. The following applies: 300 μM DPPH in methanol, room temperature, 30 min, read at 517 nm, mean of 3 observations; for IC50: read-out: IC50 (μM), concentration of sample required to scavenge 50% DPPH free radicals. As to the method:
DPPH Radical Scavenging Assay. The DPPH free radical scavenging assay is based on the abilities of compounds to quench stable DPPH free radicals (Lee, S. K.; Mbwambo, Z. H.; Chung, H. S.; Luyengi, L.; Gamez, E. J. C.; Mehta, R. G.; Kinghorn, A. D.; Pezzuto, J. M. Comb. Chem. High Throughput Screen. 1998, 1, 35-46). Reaction mixtures (200 μL) were prepared by combining multiple concentrations of test sample in methanol (10 μL) with DPPH (Aldrich, Milwaukee, Wis.) in methanol (190 μL). The final DPPH concentration was 300 μM. The reaction mixtures were incubated in 96-well microtiter plates at room temperature for 30 min. After the reaction, reduction of the radical was then measured at 517 nm. Percent inhibition by sample treatment was determined by comparison with controls containing no test samples. IC50 values denote the concentration of sample, required to scavenge 50% DPPH free radicals (Ibid.).
On the technique in general: Loss of DPPH colour is used to gauge radical scavenging.

The structures appear in SMILES notation.

As to `Oc1cccc(O)c1O` [Pyrogallol], the “IC50 (μg/mL), concentration of sample required to scavenge 50% DPPH free radicals” value (shortened to “IC50 … to scavenge 50% DPPH free radicals”) stood at 4.8 µg/mL and the IC50 worked out at 37.8 µM.
Taken in the same sequence, the figures for `CC1(C)CCCC23C(=O)OC(CC12)c1cc(C(CO)CO)c(O)c(O)c13` (centres unmarked) [Compound 6, 11,12,16,17-tetrahydroxy-7-10-(epoxymethano)-abiet-8,11,13-triene-20-one] were 23.9 µg/mL and 66 µM.
Regarding `CC(C)c1cc2c(c(O)c1O)[C@@]13CCCC(C)(C)[C@@H]1C[C@@H]2OC3=O` [Compound 5, 11,12-dihydroxy-7-10-(epoxymethano)-abiet-8,11,13-triene-20-one], the “IC50 … to scavenge 50% DPPH free radicals” value turned out to be 37.9 µg/mL and the IC50 amounted to 114 µM.
For the compound `CC(C)c1cc2c(c(O)c1O)[C@@]1(C(=O)O)CCCC(C)(C)[C@@H]1CC2` [Compound 1, carnosic acid], the “IC50 … to scavenge 50% DPPH free radicals” value was determined as 18.7 µg/mL and the IC50 amounted to 53.3 µM.
The corresponding values for `O=C1O[C@H]([C@@H](O)CO)C(O)=C1O` [Ascorbic acid] are 11.8 µg/mL and 66.8 µM.
Taken in the same sequence, the figures for `COc1c(C(C)C)cc2c(c1O)C1(CO)CCCC(C)(C)C1CC2` (centres unmarked) [Compound 4, 11,20-dihydroxy-12-methoxy-abiet-8,11,13-triene] were 27.7 µg/mL and 83.4 µM.
`CCCOC(=O)c1cc(O)c(O)c(O)c1` [Propyl gallate]: the “IC50 … to scavenge 50% DPPH free radicals” value was determined as 9.8 µg/mL and the IC50 was 46.1 µM.

The values above are taken from patent US20040014808A1, “Novel derivatives of carnosic acid” (priority 2002, published 2004).
